Columns and labels:
[1] = tested on: CD25+ CD4 T cells; assay: Flow cytometry of CD25 and Fas (CD95) on primed cells; format: cell-based, human
Description: (§1) For analysis of cell surface markers, primed cell populations separated on Ficoll-Paque gradients were used. […] Briefly, 1-3×10^5 cells per well were stained with primary antibodies at 4° C., followed by appropriately labeled secondary reagents if required. Samples were analyzed using a Bryte flow cytometer (bio-Rad, Hemel Hampstead, UK). Antibodies to the T cell markers CD3 (OKT3), CD4 (OKT4), and to the activation markers CD25 and Fas (CD95) were used for staining. To detect apoptosis using propidium iodide (PI, Sigma Chemical Co.), antibody-stained cells were fixed and permeabilized with 70% ethanol, washed, and PI […] added just before cytometric analysis. Data were analyzed using FlowJo software (Treestar, San Jose, Calif.).
The phenotype of CD4 T cells activated during priming in vitro was examined next using various markers associated with T cell activation. Antibodies against CD25 (IL-2Ra), CD26, CD45RO, CD69 and gp240 were used, but except for CD25, none of the other markers gave consistent and reliable results (data not shown). CD25 expression on CD4 T cells in the responder populations was examined in a two-color flow cytometric analysis at two separate time points,—at the end of six days of priming and after two further rest days in culture after washing and resuspension in resh medium without any stimuli. Most CD25-expressing cells in the primed cultures were CD4 T cells. […] The frequency of CD25 expression increased in the PBMC-primed responders (FIG. 17B) and this percentage was lower if POX (100 μg/ml) was present during priming (FIG. 17C). […] Similar data were observed if dbcAMP was present during priming (data not shown). It can be seen that the proportion of CD25* cells was reproducibly lower if POX was present during priming with allo-PBMCs. However, after 48 hours of rest in culture, the frequency of CD25* cells declined in the populations primed in the absence of POX, while it went up in the group primed under POX cover.

[2] = orally administered; cited from earlier work
[3] = tested on: human T cells; assay: Response of primed cells to IL-2 or PHA; format: cell-based; details: for response of primed cells to PHA: primed in presence vs absence of 100 ug/ml drug
Description: For priming in vitro, responder PBMCs were incubated for 72 or 144 h at a ratio of either 1:1 or 2:1 respectively, with stimulator PBMCs. Where appropriate, CsA. Aph. and/or Trental were added at the concentrations indicated, of PFA-fixed PBMCs were used instead.

[4] = tested on: human T cells; assay: Secondary (recall) alloproliferative response of T cells primed in vitro; format: cell-based; details: for memory/recall proliferative response: primed with allo-PBMCs in presence of 100 ug/ml drug, restimulated without drug
Description: In this system, we have used responses to first exposure as an indication of primary responses. When cells stimulated in this fashion are rested in culture and then restimulated with the same stimulator PBMCs, the 'recall' response measured are taken as an indication of immune memory. Proliferation is measured by the incorporation of radioactive tritiated thymidine in dividing cells. For priming, responder and stimulator cells mixed in 2-5 ml cultures in a ratio of 1:1-3:1. After five days of incubation, the cells were harvested, counted and viable cells used as primed responders with g-irradiated allostimulators in secondary alloproliferation assays, which were pulsed with (H^3)-thymidine after four days for estimating cell proliferation. For flow cytometric analysis, cells were separated from debris by Ficoll-Paque gradient centrifugation before staining. […] Sigma Chemical Co.) at room temperature for 20 minutes, washed extensively and used. For priming in vitro, responder PBMCs were incubated for 72 or 144 h at a ratio of either 1:1 or 2:1 respectively, with stimulator PBMCs. Where appropriate, CsA. Aph. and/or […] were added at the concentrations indicated, of PFA-fixed PBMCs were used instead.

[5] = tested on: CD25+ primed T cells; assay: Propidium iodide staining for apoptosis of CD25+ primed T cells; format: cell-based, human; details: over the 48 hour rest period after priming with drug
Description: as §1
The differences between the kinetics of CD25 expression over two days of rest culture prompted the question of whether this was linked to effects of POX on the survival of T cells activated during priming. Almost all CD25^+ cells generated during priming were CD4 T cells (FIG. 17A). therefore, responder populations primed variously were stained in a two-color flow cytometric analysis for CD25 and Fas, since Fas engagement is involved in activation induced T cell death. The frequency and level of Fas expression in the CD25^+ population was unchanged in the presence (FIG. 20, panels B and D) or absence (panels A and C) of POX during priming. […]

[6] = tested on: experimental autoimmune encephalomyelitis; details: rat, in vivo; cited from earlier work

Q: What does the source list for `CC(=O)CCCCn1c(=O)c2c(ncn2C)n(C)c1=O` [POX, pentoxifylline]?
A: frequency of CD25 expression ([1]; after two further rest days in culture without stimuli): increased frequency; frequency of CD25 expression ([1]; at end of six days of priming, POX 100 μg/ml): lower; frequency and level of Fas expression in CD25+ population ([1]; presence vs absence of POX during priming): unchanged; LD50 [2]: about 1385 milligrams per kilogram body weight; response of primed cells to IL-2 ([3]; primed in presence vs absence of 100 μg/ml Trental): to the same extent; response of primed cells to PHA [3]: does not bring about any enhancement; response of primed cells to PHA ([3]; listed as Trental): comparable; subsequent alloproliferative response of unprimed cells incubated with drug alone ([4]; 100 μg/ml, no stimulators during incubation): does not enhance; enhancing effect on the recall response ([4]; lower doses of Trental during priming): decreases; secondary response to unfixed PBMCs ([4]; primed with PF-fixed PBMCs in presence of POX 100 ug/ml): enhanced; recall response ([4]; primed with Trental plus Aph vs Aph alone): still higher; memory/recall proliferative response [4]: much improved; memory/recall proliferative response ([4]; listed as Trental): enhanced; proportion of apoptotic cells in the CD25+ population [5]: does not increase significantly; protection against EAE [6]: significant protection
